Measured values: article PMC2248166, “Quantitative peptide binding motifs for 19 human and mouse MHC class I molecules derived using positional scanning combinatorial peptide libraries” (Immunome Research, 2008)

Columns and labels:
[1] = target: HLA B*5802 (Homo sapiens, UniProt P01889, A329T/C349S/D201E/D98Y/E176V/E187L/E204Q/E69T/G107R/I218V/I90N/K202T/L105A/N104I/N87E/Q89R/Q94S/R106L/R155S/R180L/R86G/S101N/S121W/S35A/S48A/V127L/V306I/V36M/Y140S/Y91M); format: binding
[2] = target: H-2 D^b (Mus musculus, UniProt P01899); format: binding
H-2 D^b, sequence (P01887 21-119): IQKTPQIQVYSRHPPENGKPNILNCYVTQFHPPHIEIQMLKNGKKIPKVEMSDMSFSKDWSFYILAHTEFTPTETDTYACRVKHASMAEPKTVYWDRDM
H-2 D^b, sequence (P01899 25-362): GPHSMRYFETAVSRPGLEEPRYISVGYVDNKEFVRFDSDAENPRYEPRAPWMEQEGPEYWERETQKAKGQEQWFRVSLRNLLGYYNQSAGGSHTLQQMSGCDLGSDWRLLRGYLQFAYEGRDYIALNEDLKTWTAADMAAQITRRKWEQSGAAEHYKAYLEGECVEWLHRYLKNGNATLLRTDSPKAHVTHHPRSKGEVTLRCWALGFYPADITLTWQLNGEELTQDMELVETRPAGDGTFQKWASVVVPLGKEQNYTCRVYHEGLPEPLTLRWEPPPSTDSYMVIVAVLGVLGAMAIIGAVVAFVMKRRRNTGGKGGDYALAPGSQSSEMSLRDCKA

[3] = target: HLA A*6802 (Homo sapiens, UniProt P04439, A269V/D140Y/D185E/E176V/E277Q/E87N/F33Y/G231S/I121R/I166T/I218V/L180W/L300P/L318F/N151K/P208A/P217A/Q86R/R138H/R169H/S129P/T345S/V36M); format: binding
[4] = target: HLA B*3501 (Homo sapiens, UniProt P01889, A329T/A93T/A95T/C349S/D201E/D98Y/E176V/E187L/E204Q/E69T/I218V/K202T/L119I/Q94N/R155S/R180L/S121R/S35A/S48A/T118I/V127L/V306I/V36M/Y140S/Y91F); format: binding
[5] = target: HLA B*5101 (Homo sapiens, UniProt P01889, A329T/A93T/A95T/C349S/D138N/D201E/D98Y/E187L/E204Q/E69T/G107R/I218V/K202T/L105A/L119W/N104I/Q94N/R106L/R155S/R180L/S101N/S121T/S35A/S48A/V306I/V36M/Y195H/Y91F); format: binding
[6] = target: HLA A*3001 (Homo sapiens, UniProt P04439, D140H/D185E/E176W/F33S/G80R/H175R/K168Q/R138E/R41S); experiment: biochemical; format: binding
[7] = target: HLA B*1503 (Homo sapiens, UniProt P01889, A329T/A93T/A95T/C349S/D201E/D98Y/E187L/E204Q/K202T/N87E/Q94N/R155S/R180L/S121R/S35A/V306I/V36M/Y140S/Y91S); experiment: biochemical; format: binding
[8] = target: HLA B*0801 (Homo sapiens, UniProt P01889, A93T/A95T/D138N/E176V/E187T/K202T/Q94N/R180D/S35A/V36M/Y33D/Y91F); experiment: biochemical; format: binding
[9] = target: HLA A*3201 (Homo sapiens, UniProt P04439, A270S/D101S/D185E/E176V/E277Q/F133L/G103R/G107R/G231S/H175R/I121M/I218V/I322F/K168Q/L105A/L300P/L318F/M331R/P208A/P217A/Q94H/R106L/R138Q/S129P/T104I/T323A/T345S/V100E/V321M/V358M); experiment: biochemical; format: binding
[10] = target: HLA B*0702 (Homo sapiens, UniProt P01889); format: binding; details: positional scanning combinatorial 9-mer library; normalized to 1.0 for the best residue at each position
[11] = target: HLA B*5801 (Homo sapiens, UniProt P01889, A329T/C349S/D201E/D98Y/E176V/E187L/E204Q/E69T/G107R/I218V/I90N/K202T/L105A/L119I/N104I/N87E/Q89R/Q94S/R106L/R155S/R180L/R86G/S101N/S121R/S35A/S48A/T118I/V127L/V306I/V36M/Y140S/Y91M); format: binding
[12] = target: H-2 D^d (Mus musculus, UniProt P01900); format: binding
H-2 D^d, sequence (P01900 whole entry, looked up): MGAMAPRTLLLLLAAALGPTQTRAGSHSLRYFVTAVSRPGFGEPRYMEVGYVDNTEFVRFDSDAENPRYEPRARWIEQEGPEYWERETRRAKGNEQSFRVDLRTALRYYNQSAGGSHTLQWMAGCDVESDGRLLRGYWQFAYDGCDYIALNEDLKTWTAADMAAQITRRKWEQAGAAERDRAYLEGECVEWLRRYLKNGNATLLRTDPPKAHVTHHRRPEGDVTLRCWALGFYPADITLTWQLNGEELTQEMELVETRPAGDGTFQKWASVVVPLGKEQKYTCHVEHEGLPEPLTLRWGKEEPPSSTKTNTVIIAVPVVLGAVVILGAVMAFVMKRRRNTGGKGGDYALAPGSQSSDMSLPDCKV

[13] = target: HLA B*2705 (Homo sapiens, UniProt P01889, D138H/D201E/E176V/E204Q/G107R/H137Y/K202T/N104T/N87E/Q56L/Q94K/R106L/R155S/R180L/S101D/S121N/S48T/Y140D/Y33H/Y91C); format: binding; details: positional scanning combinatorial 9-mer library; normalized to 1.0 for the best residue at each position
[14] = target: HLA B*5401 (Homo sapiens, UniProt P01889, A329T/C349S/D138N/D201E/E176V/E187T/E204Q/E69G/I76V/K202T/L119W/R155S/R180L/S121T/S35A/S48A/V127L/V306I/V36M/Y140L); format: binding
[15] = target: HLA B*5301 (Homo sapiens, UniProt P01889, A329T/A93T/A95T/C349S/D201E/D98Y/E176V/E187L/E204Q/E69T/G107R/I218V/K202T/L105A/L119I/N104I/Q94N/R106L/R155S/R180L/S101N/S121R/S35A/S48A/T118I/V127L/V306I/V36M/Y140S/Y91F); format: binding
[16] = target: HLA A*0201 (Homo sapiens, UniProt P04439, D140Y/D185E/D98H/E176V/E277Q/G131W/G231S/I119V/I121R/I166T/I218V/L300P/L318F/N151K/N90K/P208A/P217A/Q86G/Q94H/R138H/R169H/T345S); details: positional scanning combinatorial 9-mer library; normalized to 1.0 for the best residue at each position
[17] = target: H-2 K^k (Mus musculus, UniProt P04223); format: binding
H-2 K^k, sequence (P01887 21-119): as the sequence (P01887 21-119) above
H-2 K^k, sequence (P04223 22-369): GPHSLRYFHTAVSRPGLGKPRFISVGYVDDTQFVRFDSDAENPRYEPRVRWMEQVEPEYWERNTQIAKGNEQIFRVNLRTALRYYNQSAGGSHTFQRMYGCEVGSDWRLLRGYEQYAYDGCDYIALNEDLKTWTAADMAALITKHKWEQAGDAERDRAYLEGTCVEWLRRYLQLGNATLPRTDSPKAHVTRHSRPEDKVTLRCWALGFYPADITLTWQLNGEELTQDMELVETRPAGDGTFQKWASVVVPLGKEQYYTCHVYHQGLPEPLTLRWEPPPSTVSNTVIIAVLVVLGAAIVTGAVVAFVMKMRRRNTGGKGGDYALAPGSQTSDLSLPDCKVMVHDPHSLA

[18] = target: HLA B*1501 (Homo sapiens, UniProt P01889, A329T/A93T/A95T/C349S/D201E/D98Y/E187L/E204Q/E69M/E70A/K202T/N87E/Q94N/R155S/R180W/S121R/S35A/S48A/V306I/V36M/Y140S/Y91S); experiment: biochemical; format: binding

XXGXXXXXX [3064.0046]
Normalized average relative binding affinity (ARB), HLA B*5802 [1]: 0.17
Normalized average relative binding affinity (ARB), H-2 Db [2]: 0.13
Normalized average relative binding affinity (ARB), HLA A*6802 [3]: 0.061
Normalized average relative binding affinity (ARB), HLA B*3501 [4]: 0.068
Normalized average relative binding affinity (ARB), HLA B*5101 [5]: 0.078
Normalized average relative binding affinity (ARB), HLA A*3001 [6]: 0.0022
Normalized average relative binding affinity (ARB), HLA B*1503 [7]: 0.063
Normalized average relative binding affinity (ARB), HLA B*0801 [8]: 0.086
Normalized average relative binding affinity (ARB), HLA A*3201 [9]: 0.20
Normalized average relative binding affinity (ARB), HLA B*0702 [10]: 0.052
Normalized average relative binding affinity (ARB), HLA B*5801 [11]: 0.12
Normalized average relative binding affinity (ARB), H-2 Dd [12]: 0.0040
Normalized average relative binding affinity (ARB), HLA B*2705 [13]: 0.17
Normalized average relative binding affinity (ARB), HLA B*5401 [14]: 0.025
Normalized average relative binding affinity (ARB), HLA B*5301 [15]: 0.046
Normalized average relative binding affinity (ARB), HLA A*0201 [16]: 0.098
Normalized average relative binding affinity (ARB), H-2 Kk [17]: 0.19
Normalized average relative binding affinity (ARB), HLA B*1501 [18]: 0.14

XXHXXXXXX [3064.0047]
Normalized average relative binding affinity (ARB), HLA B*5802 [1]: 0.42
Normalized average relative binding affinity (ARB), H-2 Db [2]: 0.20
Normalized average relative binding affinity (ARB), HLA A*6802 [3]: 0.14
Normalized average relative binding affinity (ARB), HLA B*3501 [4]: 0.094
Normalized average relative binding affinity (ARB), HLA B*5101 [5]: 0.60
Normalized average relative binding affinity (ARB), HLA A*3001 [6]: 0.089
Normalized average relative binding affinity (ARB), HLA B*1503 [7]: 0.19
Normalized average relative binding affinity (ARB), HLA B*0801 [8]: 0.35
Normalized average relative binding affinity (ARB), HLA A*3201 [9]: 0.24
Normalized average relative binding affinity (ARB), HLA B*0702 [10]: 0.39
Normalized average relative binding affinity (ARB), HLA B*5801 [11]: 0.19
Normalized average relative binding affinity (ARB), H-2 Dd [12]: 0.0028
Normalized average relative binding affinity (ARB), HLA B*2705 [13]: 0.26
Normalized average relative binding affinity (ARB), HLA B*5401 [14]: 0.013
Normalized average relative binding affinity (ARB), HLA B*5301 [15]: 0.059
Normalized average relative binding affinity (ARB), HLA A*0201 [16]: 0.27
Normalized average relative binding affinity (ARB), H-2 Kk [17]: 0.72
Normalized average relative binding affinity (ARB), HLA B*1501 [18]: 0.68

XXIXXXXXX [3064.0048]
Normalized average relative binding affinity (ARB), HLA B*5802 [1]: 1.0
Normalized average relative binding affinity (ARB), H-2 Db [2]: 0.24
Normalized average relative binding affinity (ARB), HLA A*6802 [3]: 0.38
Normalized average relative binding affinity (ARB), HLA B*3501 [4]: 0.16
Normalized average relative binding affinity (ARB), HLA B*5101 [5]: 0.39
Normalized average relative binding affinity (ARB), HLA A*3001 [6]: 0.020
Normalized average relative binding affinity (ARB), HLA B*1503 [7]: 0.17
Normalized average relative binding affinity (ARB), HLA B*0801 [8]: 0.15
Normalized average relative binding affinity (ARB), HLA A*3201 [9]: 0.60
Normalized average relative binding affinity (ARB), HLA B*0702 [10]: 0.12
Normalized average relative binding affinity (ARB), HLA B*5801 [11]: 0.77
Normalized average relative binding affinity (ARB), H-2 Dd [12]: 0.0041
Normalized average relative binding affinity (ARB), HLA B*2705 [13]: 0.22
Normalized average relative binding affinity (ARB), HLA B*5401 [14]: 0.083
Normalized average relative binding affinity (ARB), HLA B*5301 [15]: 0.26
Normalized average relative binding affinity (ARB), HLA A*0201 [16]: 0.54
Normalized average relative binding affinity (ARB), H-2 Kk [17]: 0.26
Normalized average relative binding affinity (ARB), HLA B*1501 [18]: 1.0

XXKXXXXXX [3064.0049]
Normalized average relative binding affinity (ARB), HLA B*5802 [1]: 0.081
Normalized average relative binding affinity (ARB), H-2 Db [2]: 0.028
Normalized average relative binding affinity (ARB), HLA A*6802 [3]: 0.11
Normalized average relative binding affinity (ARB), HLA B*3501 [4]: 0.096
Normalized average relative binding affinity (ARB), HLA B*5101 [5]: 0.20
Normalized average relative binding affinity (ARB), HLA A*3001 [6]: 0.20
Normalized average relative binding affinity (ARB), HLA B*1503 [7]: 0.095
Normalized average relative binding affinity (ARB), HLA B*0801 [8]: 0.96
Normalized average relative binding affinity (ARB), HLA A*3201 [9]: 0.092
Normalized average relative binding affinity (ARB), HLA B*0702 [10]: 0.20
Normalized average relative binding affinity (ARB), HLA B*5801 [11]: 0.020
Normalized average relative binding affinity (ARB), H-2 Dd [12]: 0.0033
Normalized average relative binding affinity (ARB), HLA B*2705 [13]: 0.21
Normalized average relative binding affinity (ARB), HLA B*5401 [14]: 0.015
Normalized average relative binding affinity (ARB), HLA B*5301 [15]: 0.019
Normalized average relative binding affinity (ARB), HLA A*0201 [16]: 0.016
Normalized average relative binding affinity (ARB), H-2 Kk [17]: 0.39
Normalized average relative binding affinity (ARB), HLA B*1501 [18]: 0.53

XXLXXXXXX [3064.0050]
Normalized average relative binding affinity (ARB), HLA B*5802 [1]: 0.59
Normalized average relative binding affinity (ARB), H-2 Db [2]: 1.0
Normalized average relative binding affinity (ARB), HLA A*6802 [3]: 0.10
Normalized average relative binding affinity (ARB), HLA B*3501 [4]: 0.43
Normalized average relative binding affinity (ARB), HLA B*5101 [5]: 0.54
Normalized average relative binding affinity (ARB), HLA A*3001 [6]: 0.033
Normalized average relative binding affinity (ARB), HLA B*1503 [7]: 0.043
Normalized average relative binding affinity (ARB), HLA B*0801 [8]: 0.21
Normalized average relative binding affinity (ARB), HLA A*3201 [9]: 0.58
Normalized average relative binding affinity (ARB), HLA B*0702 [10]: 0.071
Normalized average relative binding affinity (ARB), HLA B*5801 [11]: 0.61
Normalized average relative binding affinity (ARB), H-2 Dd [12]: 0.0040
Normalized average relative binding affinity (ARB), HLA B*2705 [13]: 0.55
Normalized average relative binding affinity (ARB), HLA B*5401 [14]: 0.040
Normalized average relative binding affinity (ARB), HLA B*5301 [15]: 0.59
Normalized average relative binding affinity (ARB), HLA A*0201 [16]: 0.57
Normalized average relative binding affinity (ARB), H-2 Kk [17]: 0.70
Normalized average relative binding affinity (ARB), HLA B*1501 [18]: 0.18

XXMXXXXXX [3064.0051]
Normalized average relative binding affinity (ARB), HLA B*5802 [1]: 0.57
Normalized average relative binding affinity (ARB), H-2 Db [2]: 0.31
Normalized average relative binding affinity (ARB), HLA A*6802 [3]: 1.0
Normalized average relative binding affinity (ARB), HLA B*3501 [4]: 1.0
Normalized average relative binding affinity (ARB), HLA B*5101 [5]: 1.0
Normalized average relative binding affinity (ARB), HLA A*3001 [6]: 0.028
Normalized average relative binding affinity (ARB), HLA B*1503 [7]: 0.33
Normalized average relative binding affinity (ARB), HLA B*0801 [8]: 0.90
Normalized average relative binding affinity (ARB), HLA A*3201 [9]: 0.94
Normalized average relative binding affinity (ARB), HLA B*0702 [10]: 1.0
Normalized average relative binding affinity (ARB), HLA B*5801 [11]: 0.48
Normalized average relative binding affinity (ARB), H-2 Dd [12]: 0.0095
Normalized average relative binding affinity (ARB), HLA B*2705 [13]: 0.87
Normalized average relative binding affinity (ARB), HLA B*5401 [14]: 0.24
Normalized average relative binding affinity (ARB), HLA B*5301 [15]: 1.0
Normalized average relative binding affinity (ARB), HLA A*0201 [16]: 1.0
Normalized average relative binding affinity (ARB), H-2 Kk [17]: 1.0
Normalized average relative binding affinity (ARB), HLA B*1501 [18]: 0.77
